In patent US8022205B2, “Pyrimidine derivatives as PI3K inhibitor and use thereof” (Chugai Seiyaku Kabushiki Kaisha, priority 2006, dated 2011):
Where a name gives a salt, the structure may show the parent alone.

Key:
human PI3K(p110α/p85α) = human PI3K(p110α/p85α) (Homo sapiens, UniProt P42336); assay: Measurement of PI3K inhibitory activity (AlphaScreen GST Detection Kit); assay type: biochemical; details: 10 μM ATP, 4 μM PI(4,5)P2, read-out: Enzyme inhibitory activity (IC50, μM) PI3K α
Experimental: The inhibitory activity of compounds of the present invention represented by formula (I) were measured with human PI3K(p110α/p85α) prepared in a baculovirus expression system using the AlphaScreen GST Detection Kit (Perkin Elmer, Inc.). A predetermined concentration of the compound dissolved in dimethylsulfoxide (DMSO) and PI3K were mixed in a 384-well assay plate and after allowing to stand for 20 minutes at room temperature, 4 μM PI(4,5)P2 (Echelon Corporation) and 10 μM ATP (5 mM Hepes, pH 7.5, 2.5 mM MgCl2) were added to initiate the reaction. After reacting for 15 minutes at 37° C., GST-GRP1 expressed and purified from Escherichia coli, Anti-GST Acceptor Beads (Perkin Elmer, Inc.), Streptavidin Donor Beads (Perkin Elmer, Inc.) and biotin-PI(3,4,5) P3 (Echelon Corporation) (10 mM Tris-HCl pH 7.4, 150 mM NaCl, 7.5 mM EDTA, 1 mM DTT, 0.1% Tween 20) were added, and after allowing to stand for 1 hour at room temperature, light at 520 to 620 nm emitted as a result of exciting with light at 680 nm was measured with the Envision measuring instrument (Perkin Elmer, Inc.).
Test Example 1 described above can be performed according to “Analytical Biochemistry, 2003, 313, 234-245; Alexander Gray et al”.

[1] = test system: human colon cancer cell line HCT116; assay: Cell proliferation inhibitory activity (Cell Counting Kit-8), colon cancer HCT116; assay type: cell-based; details: HCT-116, 96 h, HCT116, 4 days
Experimental: (§1) The cell proliferation inhibitory activity was measured for compounds of the present invention represented by formula (I). Cancer cell proliferation inhibitory activity was measured using the Cell Counting Kit-8 (Dojindo). 2000 cells each of human colon cancer cell line HCT116 purchased from the American Type Culture Collection (Virginia, USA) were seeded into each well of a 96-well culture plate followed by the addition of a predetermined concentration of the compounds and cultivating in a CO2environment for 4 days at 37° C. On the fourth day of cultivating, the Cell Counting Kit-8 solution was added and absorbance (measuring wavelength: 450 nm, reference wavelength: 615 nm) was measured in accordance with the protocol provided with the kit.

[2] = test system: human prostate cancer cell line PC3; assay: Cell proliferation inhibitory activity (Cell Counting Kit-8), prostate cancer PC3; assay type: cell-based; details: 96 h, PC3, 4 days
Experimental: as §1
(§2) Cancer cell proliferation inhibitory activity was also measured for human lung cancer cell line NCI-H460 and human prostate cancer cell line PC3 purchased from the American Type Culture Collection. 1000 and 3000 cells of NCI-H460 and PC3, respectively, were seeded into each well of a 96-well culture plate followed by testing in the same manner as the human colon cancer cell line and calculating the percentage of cell proliferation inhibition at 2.5 μM.

[3] = test system: human lung cancer cell line NCI-H460; assay: Cell proliferation inhibitory activity (Cell Counting Kit-8), lung cancer NCI-H460; assay type: cell-based; details: 96 h, NCI-H460, 4 days, read-out: Cell proliferation inhibitory activity (% Inhibition at 2.5 μM) Non-small cell lung cancer (NCI-H460)
Experimental: as §1, §2

Chain of human PI3K(p110α/p85α) (P42336 whole entry): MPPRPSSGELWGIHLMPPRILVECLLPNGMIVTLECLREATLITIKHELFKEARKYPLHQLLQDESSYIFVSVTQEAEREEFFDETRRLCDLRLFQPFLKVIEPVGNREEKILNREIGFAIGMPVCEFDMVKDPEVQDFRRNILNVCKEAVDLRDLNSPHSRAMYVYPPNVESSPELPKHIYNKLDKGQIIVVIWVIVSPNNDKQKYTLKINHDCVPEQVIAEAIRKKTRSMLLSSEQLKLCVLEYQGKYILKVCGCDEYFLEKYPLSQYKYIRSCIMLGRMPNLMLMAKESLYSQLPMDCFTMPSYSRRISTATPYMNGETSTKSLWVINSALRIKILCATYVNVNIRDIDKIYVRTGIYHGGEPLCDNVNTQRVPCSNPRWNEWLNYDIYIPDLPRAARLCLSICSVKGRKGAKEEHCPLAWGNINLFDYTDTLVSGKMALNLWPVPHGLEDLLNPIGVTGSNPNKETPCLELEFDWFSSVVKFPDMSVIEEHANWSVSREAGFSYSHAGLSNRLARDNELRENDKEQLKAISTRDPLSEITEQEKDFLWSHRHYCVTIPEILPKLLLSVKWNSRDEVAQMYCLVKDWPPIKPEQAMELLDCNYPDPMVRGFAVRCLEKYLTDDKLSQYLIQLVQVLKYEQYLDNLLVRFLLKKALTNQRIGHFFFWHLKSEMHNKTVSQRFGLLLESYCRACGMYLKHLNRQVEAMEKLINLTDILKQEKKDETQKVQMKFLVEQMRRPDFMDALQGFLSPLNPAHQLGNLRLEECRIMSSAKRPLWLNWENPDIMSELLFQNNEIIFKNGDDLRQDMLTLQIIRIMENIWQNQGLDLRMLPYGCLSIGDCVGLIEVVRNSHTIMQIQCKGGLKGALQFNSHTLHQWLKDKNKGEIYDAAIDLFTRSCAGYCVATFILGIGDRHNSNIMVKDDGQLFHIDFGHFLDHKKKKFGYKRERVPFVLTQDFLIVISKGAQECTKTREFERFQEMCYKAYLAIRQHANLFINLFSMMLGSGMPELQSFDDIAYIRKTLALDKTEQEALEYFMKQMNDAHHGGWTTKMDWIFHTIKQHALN
Chain of human PI3K(p110α/p85α) (P27986 whole entry partner): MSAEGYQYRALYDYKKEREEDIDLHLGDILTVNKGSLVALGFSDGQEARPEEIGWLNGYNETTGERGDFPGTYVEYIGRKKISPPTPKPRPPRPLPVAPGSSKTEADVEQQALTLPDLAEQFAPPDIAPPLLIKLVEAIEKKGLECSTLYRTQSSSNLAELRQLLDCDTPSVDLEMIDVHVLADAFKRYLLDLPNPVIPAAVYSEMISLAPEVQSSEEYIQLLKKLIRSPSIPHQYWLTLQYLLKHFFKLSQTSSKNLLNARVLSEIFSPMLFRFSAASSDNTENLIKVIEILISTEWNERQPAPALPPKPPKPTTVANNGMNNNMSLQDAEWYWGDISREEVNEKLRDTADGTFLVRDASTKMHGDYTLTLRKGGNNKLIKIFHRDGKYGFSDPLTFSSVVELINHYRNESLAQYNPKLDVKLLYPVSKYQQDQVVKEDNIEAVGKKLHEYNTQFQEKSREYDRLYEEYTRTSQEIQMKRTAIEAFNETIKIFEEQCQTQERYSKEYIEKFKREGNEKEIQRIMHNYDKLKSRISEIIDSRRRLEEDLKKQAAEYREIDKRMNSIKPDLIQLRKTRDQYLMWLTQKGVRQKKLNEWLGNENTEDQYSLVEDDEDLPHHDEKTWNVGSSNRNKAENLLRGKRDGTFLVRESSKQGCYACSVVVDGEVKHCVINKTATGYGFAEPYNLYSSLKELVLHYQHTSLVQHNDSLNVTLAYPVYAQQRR

| SMILES | IC50 (human PI3K(p110α/p85α)) [µM] | inhibition at 2.5 µM [1] [%] | inhibition at 2.5 µM [2] [%] | inhibition at 2.5 µM [3] [%] |
| --- | --- | --- | --- | --- |
| Nc1ncc(-c2nc(N3CCOCC3)nc3c2CCN3c2ccc(C(=O)N3CCN(c4cccnc4)CC3)cc2)cn1 [Example D-20, {4-[4-(2-Amino-pyrimidin-5-yl)-2-morpholin-4-yl-5,6-dihydro-pyrrolo[2,3-d]pyrimidin-7-yl]-phenyl}-(4-pyridin-3-yl-piperazin-1-yl)-methanone] | 0.046 | 83 | 99 | 99 |
| CN(C)CCNC(=O)c1cccc(-c2nc(N3CCOCC3)nc3c2CCN3c2cccnc2)c1 [Example G-05, N-(2-dimethylaminoethyl)-3-(2-morpholin-4-yl-7-pyridin-3-yl-6,7-dihydro-5H-pyrrolo[2,3-d]pyrimidin-4-yl)-benzamide] | 0.36 | 38 | 49 | 55 |
| c1cc(N2CCc3c(-c4ccc5[nH]cnc5c4)nc(N4CCOCC4)nc32)ccn1 [Example B-22, 4-(1H-benzimidazol-5-yl)-2-morpholin-4-yl-7-pyridin-4-yl-6,7-dihydro-5H-pyrrolo[2,3-d]pyrimidine] | 0.3 | 71 | 22 | 72 |
| CS(=O)(=O)Nc1cccc(N2CCc3c(-c4cccc(O)c4)nc(N4CCOCC4)nc32)c1 [Example A-48, N-{3-[4-(3-hydroxy-phenyl)-2-morpholin-4-yl-5,6-dihydro-pyrrolo[2,3-d]pyrimidin-7-yl]-phenyl}-methane sulfonamide trifluoroacetic acid salt] | 0.02 | 55 | 62 | 67 |
| CCN1CCN(c2cc(F)c(NC(=O)N3CCc4c(-c5cnc(N)nc5)nc(N5CCOCC5)nc43)c(F)c2)CC1 [Example D-18, 4-(2-Amino-pyrimidin-5-yl)-2-morpholin-4-yl-5,6-dihydro-pyrrolo[2,3-d]pyrimidine-7-carboxylic acid [4-(4-ethyl-piperazin-1-yl)-2,6-difluoro-phenyl]-amide] | 0.022 | 100 | 93 | 102 |
| CN1CCN(Cc2ccc(N3CCc4c(-c5cnc(N)nc5)nc(N5CCOCC5)nc43)c(F)c2)CC1 [Example D-326, 5-{7-[2-fluoro-4-(4-methyl-piperazin-1-ylmethyl)-phenyl]-2-morpholin-4-yl-6,7-dihydro-5H-pyrrolo[2,3-d]pyrimidin-4-yl}-pyrimidin-2-ylamine] | 0.24 | 72 | 81 | 83 |
| CN(CCN1CCOCC1)C(=O)c1ccc(N2CCc3c(-c4cnc(N)nc4)nc(N4CCOCC4)nc32)cc1 [Example D-139, 4-[4-(2-Amino-pyrimidin-5-yl)-2-morpholin-4-yl-5,6-dihydro-pyrrolo[2,3-d]pyrimidin-7-yl]-N-methyl-N-(2-morpholin-4-yl-ethyl)-benzamide] | 0.009 | 90 | 89 | 72 |
| Nc1ncc(-c2nc(N3CCOCC3)nc3c2CCN3c2ccc(C(=O)NCc3ccncc3)cc2)cn1 [Example D-264, 4-[4-(2-Amino-pyrimidin-5-yl)-2-morpholin-4-yl-5,6-dihydro-pyrrolo[2,3-d]pyrimidin-7-yl]-N-pyridin-4-ylmethyl-benzamide] | 0.007 | 63 | 72 | 82 |
| Nc1ncc(-c2nc(N3CCOCC3)nc3c2CCN3c2ccc(C(=O)N3CCN(c4cccnc4)CC3)cc2F)cn1 [Example D-21, {4-[4-(2-Amino-pyrimidin-5-yl)-2-morpholin-4-yl-5,6-dihydro-pyrrolo[2,3-d]pyrimidin-7-yl]-3-fluoro-phenyl}-(4-pyridin-3-yl-piperazin-1-yl)-methanone] | 0.01 | 77 | 100 | 79 |
| CN1CCN(Cc2ccc(N3CCc4c(-c5cnc(N)nc5)nc(N5CCOCC5)nc43)cc2F)CC1 [Example D-325, 5-{7-[3-fluoro-4-(4-methyl-piperazin-1-ylmethyl)-phenyl]-2-morpholin-4-yl-6,7-dihydro-5H-pyrrolo[2,3-d]pyrimidin-4-yl}-pyrimidin-2-ylamine] | 0.11 | 78 | 73 | 81 |
| Cc1ccc(C(=O)N2CCOCC2)cc1N1CCc2c(-c3cnc(N)nc3)nc(N3CCOCC3)nc21 [Example D-25, {3-[4-(2-Amino-pyrimidin-5-yl)-2-morpholin-4-yl-5,6-dihydro-pyrrolo[2,3-d]pyrimidin-7-yl]-4-methyl-phenyl}-morpholin-4-yl-methanone] | 0.22 | 61 | 55 | 57 |
| CCN1CCN(c2cc(N3CCc4c(-c5cnc(N)nc5)nc(N5CCOCC5)nc43)ccn2)CC1 [Example H-34, 5-{7-[2-(4-Ethyl-piperazin-1-yl)-pyridin-4-yl]-2-morpholin-4-yl-6,7-dihydro-5H-pyrrolo[2,3-d]pyrimidin-4-yl}-pyrimidin-2-ylamine] | 0.011 | 81 | 91 | 89 |
| Nc1ncc(-c2nc(N3CCOCC3)nc3c2CCN3c2cc(C(=O)N3CCOCC3)ccc2F)cn1 [Example D-16, {3-[4-(2-Amino-pyrimidin-5-yl)-2-morpholin-4-yl-5,6-dihydro-pyrrolo[2,3-d]pyrimidin-7-yl]-4-fluoro-phenyl}-morpholin-4-yl-methanone] | 0.23 | 74 | 73 | 76 |
| CCN1CCN(C(=O)c2cccc(NC(=O)N3CCc4c(-c5cnc(N)nc5)nc(N5CCOCC5)nc43)c2)CC1 [Example D-101, 4-(2-Amino-pyrimidin-5-yl)-2-morpholin-4-yl-5,6-dihydro-pyrrolo[2,3-d]pyrimidine-7-carboxylic acid [3-(4-ethyl-piperazine-1-carbonyl)-phenyl]-amide] | 0.009 | 92 | 89 | 67 |
| Nc1ncc(-c2nc(N3CCOCC3)nc3c2CCN3c2ccc(C(=O)N3CCN(c4ccncc4)CC3)cc2F)cn1 [Example D-286, {4-[4-(2-Amino-pyrimidin-5-yl)-2-morpholin-4-yl-5,6-dihydro-pyrrolo[2,3-d]pyrimidin-7-yl]-3-fluoro-phenyl}-(4-pyridin-4-yl-piperazin-1-yl)-methanone] | 0.008 | 94 | 89 | 97 |
| Nc1ncc(-c2nc(N3CCOCC3)nc3c2CCN3c2ccc(C(=O)NCc3cccnc3)cc2)cn1 [Example D-19, 4-[4-(2-Amino-pyrimidin-5-yl)-2-morpholin-4-yl-5,6-dihydro-pyrrolo[2,3-d]pyrimidin-7-yl]-N-pyridin-3-ylmethyl-benzamide] | 0.06 | 73 | 102 | 97 |
| CCNC(=O)N1CCc2c(-c3cnc(N)nc3)nc(N3CCOCC3)nc21 [Example D-03, 4-(2-Amino-pyrimidin-5-yl)-2-morpholin-4-yl-5,6-dihydro-pyrrolo[2,3-d]pyrimidine-7-carboxylic acid ethylamide] | 0.02 | 92 | 88 | 92 |
| CCN1CCN(c2ccc(NC(=O)N3CCc4c(-c5cnc(N)nc5)nc(N5CCOCC5)nc43)c(C)c2)CC1 [Example D-242, 4-(2-Amino-pyrimidin-5-yl)-2-morpholin-4-yl-5,6-dihydro-pyrrolo[2,3-d]pyrimidine-7-carboxylic acid [4-(4-ethyl-piperazin-1-yl)-2-methyl-phenyl]-amide] | 0.01 | 99 | 100 | 55 |
| COc1ncc(-c2nc(N3CCOCC3)nc3c2CCN3c2cccnc2)c(OC)n1 [Example B-09, 4-(2,4-Dimethoxy-pyrimidin-5-yl)-2-morpholin-4-yl-7-pyridin-3-yl-6,7-dihydro-5H-pyrrolo[2,3-d]pyrimidine] | 0.26 | 45 | 56 | 67 |
